From patent US20240368150A1 (Hoffmann-La Roche Inc., priority 2021, published 2024)
Where two headings read alike, the source gives them in different places.

Experiments:
primary human T-cells [1] = test: Proliferation assay after 5 days (CellTiter-Glo, CD3 stimulation; PBS counter screen); format: cell-based; details: Homo sapiens, T-cell, 120 h, CD3 stimulation; for Emax: 5 days, normalized to reference compound A1 as stimulator control = 100%, DMSO neutral control, read-out: Emax proliferation (% activation); for EC50: primary human T-cells, CellTiter-Glo after 5 days, EC50 of fitted sigmoidal curve, read-out: Tcell Proliferation CD3 EC50
Outline: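 Cpds added to medium-only plates; 5 d culture. Readout CellTiter-Glo 2.0 (equal vol), RT 45 min equilibration, 15 min rocking RT, luminescence. ATP signal taken as cell number.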

primary human T-cells [2] = test system: primary human T-cells

Row | Compound | EC50 (primary human T-cells [2]) | Emax (primary human T-cells [1]) | EC50 (primary human T-cells [1])
1 | N[C@H]1CS(=O)(=O)c2cc(F)c(-c3nc4n(n3)CCNC4C(F)(F)F)cc2N(Cc2ccc(OC(F)(F)F)cc2)C1=O (stereo partly drawn) [Example 288, (3R)-3-amino-8-fluoro-1,1-dioxo-5-[[4-(trifluoromethoxy)phenyl]methyl]-7-[8-(trifluoromethyl)-5,6,7,8-tetrahydro-[1,2,4]triazolo[1,5-a]pyrazin-2-yl]-2,3-dihydro-1λ^6,5-benzothiazepin-4-one] | > 10 µM | 71% | 4.31 µM
2 | N[C@H]1CS(=O)(=O)c2cc(F)c(-c3noc(C(=O)NCC(F)(F)F)n3)cc2N(Cc2ccc(Cl)cc2)C1=O [Example 291, 3-[(3R)-3-amino-5-[(4-chlorophenyl)methyl]-8-fluoro-1,1,4-trioxo-2,3-dihydro-1λ^6,5-benzothiazepin-7-yl]-N-(2,2,2-trifluoroethyl)-1,2,4-oxadiazole-5-carboxamide] | 1.7 µM | 104% | 0.446 µM
3 | N[C@H]1CS(=O)(=O)c2cc(F)c(-c3noc(C(N)(C4CCOCC4)C(F)(F)F)n3)cc2N(Cc2ccc(Cl)cc2)C1=O (stereo partly drawn) [Example 294, (3R)-3-amino-7-[5-(1-amino-2,2,2-trifluoro-1-tetrahydropyran-4-yl-ethyl)-1,2,4-oxadiazol-3-yl]-5-[(4-chlorophenyl)methyl]-8-fluoro-1,1-dioxo-2,3-dihydro-1λ^6,5-benzothiazepin-4-one] | 0.373 µM | 143% | 0.261 µM
4 | CC(F)(F)CNC(=O)c1nc(-c2cc3c(cc2F)S(=O)(=O)C[C@H](N)C(=O)N3Cc2ccc(Cl)cc2)no1 [Example 295, 3-[(3R)-3-amino-5-[(4-chlorophenyl)methyl]-8-fluoro-1,1,4-trioxo-2,3-dihydro-1λ^6,5-benzothiazepin-7-yl]-N-(2,2-difluoropropyl)-1,2,4-oxadiazole-5-carboxamide] | 0.885 µM | 97% | 1.39 µM

The next lines start with results.

Row | EC50 (primary human T-cells [2]) | Compound | Emax (primary human T-cells [1]) | EC50 (primary human T-cells [1])
5 | 1.01 µM | CC(C)(C)c1ccn(-c2cc3c(cc2F)S(=O)(=O)C[C@H](N)C(=O)N3Cc2ccc(Cl)cc2)n1 [Example 283, (3R)-3-amino-7-(3-tert-butylpyrazol-1-yl)-5-[(4-chlorophenyl)methyl]-8-fluoro-1,1-dioxo-2,3-dihydro-1λ^6,5-benzothiazepin-4-one] | 67% | 5.49 µM
6 | > 20 µM | CCc1cnn(-c2cc3c(cc2F)S(=O)(=O)C[C@H](N)C(=O)N3Cc2ccc(Cl)cc2)c1 [Example 284, (3R)-3-amino-5-[(4-chlorophenyl)methyl]-7-(4-ethylpyrazol-1-yl)-8-fluoro-1,1-dioxo-2,3-dihydro-1λ^6,5-benzothiazepin-4-one] | 30% | 5.49 µM
7 | 9.37 µM | CCn1cnc(-c2cc3c(cc2F)S(=O)(=O)C[C@H](N)C(=O)N3Cc2ccc(Cl)cc2)n1 [Example 285, (3R)-3-amino-5-[(4-chlorophenyl)methyl]-7-(1-ethyl-1,2,4-triazol-3-yl)-8-fluoro-1,1-dioxo-2,3-dihydro-1λ^6,5-benzothiazepin-4-one] | 60% | 5.49 µM
8 | 19.3 µM | CC(C)(C)n1ccc(-c2cc3c(cc2F)S(=O)(=O)C[C@H](N)C(=O)N3Cc2ccc(Cl)cc2)n1 [Example 287, (3R)-3-amino-7-(1-tert-butylpyrazol-3-yl)-5-[(4-chlorophenyl)methyl]-8-fluoro-1,1-dioxo-2,3-dihydro-1λ^6,5-benzothiazepin-4-one] | 66% | 2.21 µM
9 | 0.71 µM | N[C@H]1CS(=O)(=O)c2cc(F)c(-c3noc(C(F)C(F)(F)F)n3)cc2N(Cc2ccc(Cl)cc2)C1=O (stereo partly drawn) [Example 296, (3R)-3-amino-5-[(4-chlorophenyl)methyl]-8-fluoro-1,1-dioxo-7-[5-(1,2,2,2-tetrafluoroethyl)-1,2,4-oxadiazol-3-yl]-2,3-dihydro-1λ^6,5-benzothiazepin-4-one] | 66% | 0.687 µM
